Laboratory results as given in patent US20070078263A1, “BIARYL SUBSTITUTED HETEROCYCLE INHIBITORS OF LTA4H FOR TREATING INFLAMMATION” (deCODE Chemistry, Inc., priority 2005, published 2007).
Counter-ions that a name gives are not always drawn.

These compounds were tested against T1, human LTA4 hydrolase (Homo sapiens, UniProt P09960) (assay: In vitro assay testing inhibitory activity against purified recombinant human LTA4 hydrolase (LTB4 formed, LC-MS/MS)). Conditions: not given.
T1 construct: A human LTA4 hydrolase full-length cDNA clone (NM 000895) was purchased; His tag (6xHis of vector pDEST17); made in house; host or cells: Escherichia coli BL21-AI
T1 sequence (P09960 1-611): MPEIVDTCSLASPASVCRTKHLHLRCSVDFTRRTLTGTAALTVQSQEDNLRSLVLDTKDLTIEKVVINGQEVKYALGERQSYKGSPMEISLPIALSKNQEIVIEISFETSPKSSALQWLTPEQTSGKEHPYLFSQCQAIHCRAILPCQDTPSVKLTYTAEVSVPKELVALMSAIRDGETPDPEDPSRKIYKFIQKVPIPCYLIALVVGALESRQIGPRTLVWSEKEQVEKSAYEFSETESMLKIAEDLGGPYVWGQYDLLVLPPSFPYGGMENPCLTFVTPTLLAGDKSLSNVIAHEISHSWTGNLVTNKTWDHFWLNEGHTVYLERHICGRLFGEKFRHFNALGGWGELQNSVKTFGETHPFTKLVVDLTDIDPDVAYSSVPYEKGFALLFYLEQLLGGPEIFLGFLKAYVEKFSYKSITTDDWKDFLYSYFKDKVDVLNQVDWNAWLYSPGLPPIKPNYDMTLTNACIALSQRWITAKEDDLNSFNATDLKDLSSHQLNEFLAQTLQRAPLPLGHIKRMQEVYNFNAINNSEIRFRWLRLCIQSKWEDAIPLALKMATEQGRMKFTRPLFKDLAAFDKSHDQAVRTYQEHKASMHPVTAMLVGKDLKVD
Format: biochemical
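Also: 200 nM enzyme preincubated 10 min at room temperature with serial inhibitor dilutions in pH 8.0 Tris buffer with BSA and 10% DMSO, then 2 µM LTA4 added.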

Structure (SMILES) | IC50 [µM]
c1ccc(Cc2ccc(COC[C@H]3CCCN3)cc2)cc1 [Example 156, hydrochloride salt] | < 5

Same assay, conditions: recombinant human LTA4 hydrolase 200 nM, LTA4 2 μM; read-out: AvgIC50

Structure (SMILES) | IC50 [µM]
Fc1ccc(COc2ccc(OC[C@H]3CCCN3)cc2)cc1 [Example 92, (R)-2-[4-(4-Fluoro-benzyloxy)-phenoxymethyl]-pyrrolidine Hydrogen chloride salt] | < 5
Fc1ccc(COc2ccc(OC[C@H]3CCCN3)cc2)cc1F [Example 93, (R)-2-[4-(3,4-Difluoro-benzyloxy)-phenoxymethyl]-pyrrolidine Hydrogen chloride salt] | < 5
Clc1ccc(COc2ccc(OC[C@H]3CCCN3)cc2)cc1 [Example 94, (R)-2-[4-(4-Chloro-benzyloxy)-phenoxymethyl]-pyrrolidine Hydrogen chloride salt] | < 5
FC(F)(F)c1ccc(COc2ccc(OC[C@H]3CCCN3)cc2)cc1 [Example 95, (R)-2-[4-(4-Trifluoromethyl-benzyloxy)-phenoxymethyl]-pyrrolidine Hydrogen chloride salt] | < 5
FC(F)(F)c1cccc(COc2ccc(OC[C@H]3CCCN3)cc2)c1 [Example 96, (R)-2-[4-(3-Trifluoromethyl-benzyloxy)-phenoxymethyl]-pyrrolidine Hydrogen chloride salt] | 5 to 20
COc1cccc(COc2ccc(OC[C@H]3CCCN3)cc2)c1 [Example 97, (R)-2-[4-(3-Methoxy-benzyloxy)-phenoxymethyl]-pyrrolidine Hydrogen chloride salt] | 20 to 100
Clc1cc2c(cc1COc1ccc(OC[C@H]3CCCN3)cc1)OCO2 [Example 98, (R)-2-[4-(6-Chloro-benzo[1,3]dioxol-5-ylmethoxy)phenoxymethyl]pyrrolidine Hydrogen chloride salt] | 20 to 100
c1ccc2oc(Oc3ccc(OC[C@H]4CCCN4)cc3)nc2c1 [Example 99, (R)-2-[4-(Benzooxazol-2-yloxy)-phenoxymethyl]-pyrrolidine Hydrogen chloride salt] | < 5
Clc1ccc2nc(Oc3ccc(OC[C@H]4CCCN4)cc3)sc2c1 [Example 101, (R)-2-[4-(6-Chloro-benzothiazol-2-yloxy)-phenoxymethyl]-pyrrolidine-Hydrogen chloride salt] | < 5
COc1ccc2nc(Oc3ccc(OC[C@H]4CCCN4)cc3)sc2c1 [Example 102, (R)-2-[4-(6-Methoxy-benzothiazol-2-yloxy)-phenoxymethyl]-pyrrolidine-Hydrogen chloride salt] | < 5
c1ccc2[nH]c(Oc3ccc(OC[C@H]4CCCN4)cc3)nc2c1 [Example 103, 2-[4-((R)-1-Pyrrolidin-2-ylmethoxy)-phenoxy]-1H-benzoimidazole Hydrogen chloride salt] | < 5
O=C(O)CCCN1CCC[C@@H]1COc1ccc(Cc2ccc(-c3ccco3)cc2)cc1 [Example 114, 4-{(R)-2-[4-(4-furan-2-yl-benzyl)-phenoxymethyl]-pyrrolidin-1-yl}-butyric acid hydrogen chloride salt] | < 5
Cc1ccc(-c2ccc(Cc3ccc(OC[C@H]4CCCN4CCCC(=O)O)cc3)cc2)s1 [Example 115, (R)-2-{4-[4-(5-methyl-thiophen-2-yl)-benzyl]-phenoxymethyl}-pyrrolidin-1-yl}-butyric acid hydrogen chloride salt] | < 5
O=C(O)CCCN1CCC[C@@H]1COc1ccc(Cc2ccc(-c3ccc(Cl)s3)cc2)cc1 [Example 116, (R)-2-{4-[4-(5-chloro-thiophen-2-yl)-benzyl]-phenoxymethyl}-pyrrolidin-1-yl}-butyric hydrogen chloride salt] | < 5
O=C(O)CCCN1CCC[C@H]1COc1ccc(Cc2ccc(-c3cccs3)cc2)cc1 [Example 118] | < 5
Ic1ccc(Cc2ccc(OC[C@@H]3CCCN3)cc2)cc1 [Example 121, (S)-2-[4-(4-Iodo-benzyl)-phenoxymethyl]-pyrrolidine] | < 5
c1cc(OC[C@@H]2CCCN2)ccc1Cc1ccc(N2CCC2)cc1 [Example 124, (S)-2-[4-(4-Azetidin-1-yl-benzyl)-phenoxymethyl]-pyrrolidine hydrogen chloride salt] | 5 to 20
c1cc(-c2ccc(Cc3ccc(OC[C@H]4CCCN4)cc3)cc2)ccn1 [Example 125, 4-{4-[4-((R)-1-Pyrrolidin-2-ylmethoxy)-benzyl]-phenyl}-pyridine hydrogen chloride salt] | 5 to 20
c1cncc(-c2ccc(Cc3ccc(OC[C@H]4CCCN4)cc3)cc2)c1 [Example 126, 3-{4-[4-((R)-1-Pyrrolidin-2-ylmethoxy)-benzyl]-phenyl}-pyridine] | 5 to 20

Structure (SMILES) | IC50 [µM]
O=C(c1ccc(I)cc1)c1ccc(OC[C@H]2CCCN2)cc1 [Example 127, (4-Iodo-phenyl)-[4-((R)-1-pyrrolidin-2-ylmethoxy)-phenyl]-methanone] | 5 to 20
OC(c1ccc(OC[C@H]2CCCN2)cc1)c1ccc(-c2ccsc2)cc1 (stereo partly drawn) [Example 129, [4-((R)-1-Pyrrolidin-2-ylmethoxy)-phenyl]-(4-thiophen-3-yl-phenyl)-methanol] | 5 to 20
c1csc(-c2ccc(Oc3ccc(OC[C@H]4CCCN4)cc3)cc2)c1 [Example 131, (R)-2-[4-(4-Thiophen-2-yl-phenoxy)-phenoxymethyl]-pyrrolidine-1-hydrogen chloride salt] | 5 to 20
c1ncc(-c2ccc(Oc3ccc(OC[C@H]4CCCN4)cc3)cc2)o1 [Example 132, 5-{4-[4((R)-1-Pyrrolidin-2-ylmethoxy)-phenoxy]-phenyl}-oxazole, hydrogen chloride salt] | 5 to 20
N#CC1(c2ccc(Oc3ccc(OC[C@H]4CCCN4)cc3)cc2)CC1 [Example 136, 1-{4-[4-((R)-1-Pyrrolidin-2-ylmethoxy)-phenoxy]-phenyl}-cyclopropanecarbonitrile hydrogen chloride salt] | < 5
C[C@@H](NC(=O)CCCN1CCC[C@H]1COc1ccc(Oc2ccc(Cl)cc2)cc1)c1ccccc1 [Example 139, 4-{(S)-2-[4-(4-Chloro-phenoxy)-phenoxymethyl]-pyrrolidin-1-yl}-N—[(R)-1-phenylethyl]-butyramide] | < 5
c1ccc(Cc2ccc(OC[C@H]3CCCN3)nc2)cc1 [Example 141, 5-Benzyl-2-((R)-1-pyrrolidin-2-ylmethoxy)-pyridinehydrochloride salt] | < 5
c1ccc(Cc2ccc(OC[C@@H]3CCCN3)nc2)cc1 [Example 142, 5-Benzyl-2-((S)-1-pyrrolidin-2-ylmethoxy)-pyridine hydrochloride salt] | < 5
c1cc(Oc2ccc(OC[C@H]3CCCN3)cc2)ccn1 [Example 144, 4-[4-((R)-1-Pyrrolidin-2-ylmethoxy)-phenoxy]-pyridine] | < 5
O=C(O)CCN1CCC[C@@H]1COc1ccc(Oc2ccncc2)cc1 [Example 145, 3-{(R)-2-[4-(Pyridin-4-yloxy)-phenoxymethyl]-pyrrolidin-1-yl}-propionic acid] | < 5
c1coc(-c2ccc(Oc3ccc(OC[C@H]4CCCN4)cc3)cc2)n1 [Example 148, hydrochloride salt] | < 5
c1csc(-c2ccc(Cc3ccc(OC[C@H]4CCCN4)cc3)cc2)n1 [Example 149, 2-{4-[4-((R)-1-Pyrrolidin-2-ylmethoxy)-benzyl]-phenyl}-thiazole hydrochloride salt] | < 5
c1csc(-c2ccc(Cc3ccc(OC[C@@H]4CCCN4)cc3)cc2)n1 [Example 150, 2-{4-[4-((S)-1-Pyrrolidin-2-ylmethoxy)-benzyl]-phenyl}-thiazole hydrochloride salt] | < 5
O=C(O)CCCN1CCC[C@H]1COc1ccc(Cc2ccc(-c3nccs3)cc2)cc1 [Example 151, 4-{(S)-2-[4-(4-Thiazol-2-yl-benzyl)-phenoxymethyl]-pyrrolidin-1-yl}-butylic acid hydrochloride salt] | < 5
c1coc(-c2ccc(Cc3ccc(OC[C@H]4CCCN4)cc3)cc2)n1 [Example 152, 2-{4-[4-((R)-1-Pyrrolidin-2-ylmethoxy)-benzyl]-phenyl}-oxazole] | < 5
c1ncn(-c2ccc(Oc3ccc(OC[C@H]4CCCN4)cc3)cc2)n1 [Example 153, 1-{4-[4-((R)-1-Pyrrolidin-2-ylmethoxy)-phenoxy]-phenyl}-1H-[1,2,4]triazole hydrochloride salt] | < 5
O=C(O)CCCN1CCC[C@@H]1COCc1ccc(Cc2ccccc2)cc1 [Example 157, 4-[(R)-2-(4-Benzyl-benzyloxymethyl)pyrrolidin-1-yl]butylic acid hydrochloride salt] | < 5
O=C(O)CCCN1CCC[C@@H]1COc1ccc(Cc2ccc(-c3ccccc3)s2)cc1 [Example 160, 4-{(R)-2-[4-(5-Phenyl-thiophen-2-ylmethyl)-phenoxymethyl]-pyrrolidin-1-yl}-butyric acid] | < 5
c1ccc(-c2ccc(Cc3ccc(OC[C@@H]4CCCN4)cc3)s2)cc1 [Example 161, (S)-2-[4-(5-Phenyl-thiophen-2-ylmethyl)-phenoxymethyl]-pyrrolidine hydrochloride salt] | < 5
